# According to US20180291123A1, “DI-FUNCTIONALIZED HYALURONIC ACID DERIVATIVES AND HYDROGELS THEREOF” (THE BROAD OF REGENTS OF THE UNIVERSITY OF TEXAS SYSTEM, priority 2015, published 2018):
# No end group written: not given here.
# Experiments:
# [1] = system: mouse embryonic stem cells; assay: Differentiation of mouse embryonic stem cells on IKVAV concentration gradient PEG hydrogels; assay type: cell-based; settings: 3 days of differentiation
# hiPSC derived NSC = hiPSC derived NSC in 3D matrix with coupled IKVAV; assay type: cell-based, human; settings: peptide coupled within a 3D matrix, preliminary data
substance,measurement,setting,value
IKVAV (also: tethered in PEG hydrogel),toxicity,[1]; high concentration of tethered peptide,toxicity evident
same,neurite extension,[1]; low concentration of tethered peptide,lack of neurite extension
same,"effect on cellular survival, neurite extension and differentiation","[1]; tethered peptide concentration gradient in PEG hydrogels, β3 tubulin staining",concentration dependent effect
same,survival and neurite extension,hiPSC derived NSC,can support survival and neurite extension
